Measured values published in the supplement of paper PMC13380429.
± gives the standard deviation of the averaged measurements.

Legend:
Settings in all cases: 72 h
U2OS [1] = assay: relative viability EC50 (midpoint between 100% and the lowest measured viability); higher = less toxic
Vero E6 [2] = assay: as above
HepG2 [3] = assay: as above
Caco-2 [4] = assay: as above
U2OS [5] = assay: drug sensitivity score (DSS) for viability; higher = more toxic; extreme values may be limits of the assay
Vero E6 [6] = assay: as above
HepG2 [7] = assay: as above
Caco-2 [8] = assay: as above
U2OS [9] = assay: cell viability relative to DMSO; higher = less toxic
Vero E6 [10] = assay: as above
HepG2 [11] = assay: as above
Caco-2 [12] = assay: as above
Calu-3 [13] = assay: relative viability EC50 (midpoint between 100% and the lowest measured viability); higher = less toxic
Calu-3 [14] = assay: drug sensitivity score (DSS) for viability; higher = more toxic; extreme values may be limits of the assay
Calu-3 [15] = assay: cell viability relative to DMSO; higher = less toxic

| SMILES | relative viability EC50 (U2OS [1]) | relative viability EC50 (Vero E6 [2]) | relative viability EC50 (HepG2 [3]) | relative viability EC50 (Caco-2 [4]) | drug sensitivity score (U2OS [5]) | drug sensitivity score (Vero E6 [6]) | drug sensitivity score (HepG2 [7]) | drug sensitivity score (Caco-2 [8]) | cell viability (U2OS [9]; 1 nM) | cell viability (U2OS [9]; 10 nM) | cell viability (U2OS [9]; 100 nM) | cell viability (U2OS [9]; 1000 nM) | cell viability (U2OS [9]; 10000 nM) | cell viability (Vero E6 [10]; 1 nM) | cell viability (Vero E6 [10]; 10 nM) | cell viability (Vero E6 [10]; 100 nM) | cell viability (Vero E6 [10]; 1000 nM) | cell viability (Vero E6 [10]; 10000 nM) | cell viability (HepG2 [11]; 1 nM) | cell viability (HepG2 [11]; 10 nM) | cell viability (HepG2 [11]; 100 nM) | cell viability (HepG2 [11]; 1000 nM) | cell viability (HepG2 [11]; 10000 nM) | cell viability (Caco-2 [12]; 1 nM) | cell viability (Caco-2 [12]; 10 nM) | cell viability (Caco-2 [12]; 100 nM) | cell viability (Caco-2 [12]; 1000 nM) | cell viability (Caco-2 [12]; 10000 nM) | relative viability EC50 (Calu-3 [13]) | drug sensitivity score (Calu-3 [14]) | cell viability (Calu-3 [15]; 1 nM) | cell viability (Calu-3 [15]; 10 nM) | cell viability (Calu-3 [15]; 100 nM) | cell viability (Calu-3 [15]; 1000 nM) | cell viability (Calu-3 [15]; 10000 nM) |
| --- | --- | --- | --- | --- | --- | --- | --- | --- | --- | --- | --- | --- | --- | --- | --- | --- | --- | --- | --- | --- | --- | --- | --- | --- | --- | --- | --- | --- | --- | --- | --- | --- | --- | --- | --- |
| C/C(=N\NC(=O)[C@@H]1C(=O)NC[C@H]1c1ccccc1)c1cccc(Br)c1 | > 10 µM | > 10 µM | > 10 µM | > 10 µM | 0 | 0 | 0 | 0 | 99.9% | 100% | 103% | 94.1% | 97.5% | 96.3% | 97.9% | 94% | 98.2% | 96.4% | 99.4% | 99.8% | 101% | 103% | 92.4% | 102% | 97.5% | 104% | 96% | 101% | – | – | – | – | – | – | – |
| COc1ccc(CNC(=O)/C=C/c2ccc3[nH]cc(CCN(C)C)c3c2)cc1 | > 10 µM | > 10 µM | > 10 µM | > 10 µM | 0 | 0 | 0 | 0 | 102% | 97.4% | 98.1% | 98.9% | 99.3% | 98.5% | 98% | 101% | 101% | 102% | 107% | 90.6% | 93.5% | 94% | 96.8% | 106% | 95% | 93.8% | 96.6% | 98.7% | – | – | – | – | – | – | – |
| CN(C)/N=N/c1ccc(C(=O)O)cc1 [CB-10-277] | > 10 µM | > 10 µM | > 10 µM | > 10 µM | 0 | 0 | 0 | 0 | 96.6% | 104% | 98.1% | 99.9% | 104% | 98.7% | 98.3% | 97.6% | 97.2% | 106% | 102% | 95.9% | 113% | 102% | 105% | 95.8% | 97.3% | 101% | 96.6% | 102% | – | – | – | – | – | – | – |
| O=C(CN1C(=O)C2(CCCC2)NC[C@H]1c1cc(F)cc(F)c1)Nc1ccc2c(c1)C[C@@]1(C2)C(=O)Nc2ncccc21 [MK-3207] | > 10 µM | – | > 10 µM | > 10 µM | 0 | – | 0 | 0 | 104% | 101% | 102% | 96.8% | 101% | – | – | – | – | – | 91.2% | 106% | 101% | 113% | 101% | 99% | 101% | 93% | 106% | 88.8% | > 10 µM | 0 | 96.6% | 92.9% | 98.2% | 93.4% | 109% |
| O=c1cc(N2CCN(c3cccc(C(F)(F)F)c3)CC2)[nH]c(=O)n1C1CCCCC1 [ML179] | > 10 µM | > 10 µM | > 10 µM | > 10 µM | 0 | 0 | 2.7 | 0 | 101% | 97.5% | 100% | 97.9% | 101% | 102% | 101% | 98.4% | 100% | 99.7% | 100% | 105% | 94.4% | 82.6% | 77.7% | 95.5% | 96.8% | 97.2% | 98% | 96.5% | – | – | – | – | – | – | – |
| CC(C)c1ccc(-c2cc(=O)c3ccccc3o2)cc1 [MN-64] | > 10 µM | – | – | > 10 µM | 0.2 | 2.2 | 2.5 | 1.9 | 102% | 99.4% | 102% | 95.2% | 88.2% | 96.6% | 94.2% | 98.9% | 98% | 61.5% | 91.9% | 97.6% | 94.8% | 94.8% | 65.1% | 105% | 98.8% | 105% | 84.9% | 81.1% | – | 1.7 | 113% | 105% | 97.2% | 96.1% | 72.7% |
| O=C1C(Cl)=C(N2CCOCC2)C(=O)N1c1ccc(Cl)c(Cl)c1 [RI-1] | > 10 µM | > 10 µM | > 10 µM | > 10 µM | 0 | 0 | 0 | 0 | 89.2% | 97.2% | 96.8% | 96.7% | 101% | 102% | 95.5% | 97.7% | 97.1% | 107% | 98.9% | 107% | 103% | 97.3% | 98.6% | 97.2% | 94.9% | 93.2% | 106% | 110% | – | – | – | – | – | – | – |
| O=C(NCc1cccc(O)c1)Nc1nc(-c2ccncc2)cs1 [RKI-1447] | – | – | – | > 10 µM | 3.6 ± 0.57 | 5.05 ± 1.8 | 2.05 ± 1.1 | 0.65 ± 0.49 | 98.8 ± 2.4% | 99.3 ± 2.8% | 101 ± 4.9% | 87.5 ± 3.1% | 61.8 ± 2.3% | 99.5 ± 3.7% | 100 ± 4.4% | 91.1 ± 13% | 76.1 ± 0.42% | 73.4 ± 0.28% | 94.2 ± 6% | 108 ± 9.9% | 101 ± 3.4% | 91.95 ± 0.49% | 73.1 ± 8.9% | 97.8 ± 5.2% | 97 ± 0.14% | 94.8 ± 6.2% | 96.6 ± 1.1% | 81.3 ± 0.14% | > 10 µM | 0 | 97.9% | 128% | 146% | 148% | 144% |
